Laboratory results published in patent US6806229B1, “Herbicidally active pyridine sulfonyl urea derivatives” (LG Life Sciences, priority 2003, dated 2004).
Read-outs that look alike come from different tables or passages of the source.

What was measured:
Oryza sativa = experiment: Phytotoxicity to rice (direct-seeded and transplanted) in paddy condition, greenhouse pot test; type: in vivo; details: visual rating after two weeks; for Phytotoxicity, Oryza sativa, Seed: direct-seeded rice, treated 5 days after sowing; for Phytotoxicity, Oryza sativa, Transplanted: transplanted rice seedlings, treated 5 days after transplanting
Source text: (§1) Pots having a surface area of 150 cm^2 were filled with a small amount of fertilizer and sterilized paddy field soil in a muddy state with a depth of 5 cm. Five (5) seeds of pre-germinated rice were directly sown on the soil surface and three (3) rice seedlings (2˜3 leaves) prepared in advance were transplanted in a depth of 2 cm in each pot. In another pot, seeds of barnyardgrass were sown and incorporated into the surface layer of soil. After sowing and transplanting of rice plant and sowing of barnyardgrass, the pots were flooded with water 3 cm deep and kept in a greenhouse. The rice plant was treated with the chemicals 5 days after sowing or transplanting, and barnyardgrass was treated with the chemicals at the pre-emergence (5 days after from sowing) and post-emergence stage (at the three-leaf stage, usually after 15 days from sowing).
(§2) Suitable herbicidal compositions were prepared by mixing and dissolving 1 part by weight of the active compound with 5 parts by weight of acetone and 1 part by weight of alkylaryl polyglycolether as an emulsifier and then diluting with water to the predetermined concentration. Application was made by dropping the herbicide solutions onto the water surface of the pots.

Echinochloa crus-galli = experiment: Herbicidal activity to barnyardgrass in paddy condition, pre- and post-emergence, greenhouse pot test; type: in vivo; details: for pest or weed control at 5 g/ha / pest or weed control at 10 g/ha / pest or weed control at 20 g/ha / pest or weed control at 30 g/ha: Echinochloa crus-galli, 336 h, visual rating after two weeks
Source text: as §1, §2

[1] = 80 g/ha, 0 = none, 100 = complete death
[2] = post-emergence, three-leaf stage, read-out: Herbicidal activity, Echinochloa crus-galli, Post-emergence (3-Leaf stage)
[3] = pre-emergence (5 days after sowing), read-out: Herbicidal activity, Echinochloa crus-galli, Pre-emergence
[4] = 20 g/ha, post-emergence, three-leaf stage, read-out: Herbicidal activity, Echinochloa crus-galli, Post-emergence (3-Leaf stage)
[5] = 20 g/ha, pre-emergence (5 days after sowing), read-out: Herbicidal activity, Echinochloa crus-galli, Pre-emergence
[6] = pre-emergence (5 days after sowing), 0 = no activity, 100 = complete death, read-out: Herbicidal activity, Echinochloa crus-galli, Pre-emergence

Row | SMILES | Phytotoxicity, Oryza sativa, Seed (Oryza sativa; 10 g/ha) [%] | Phytotoxicity, Oryza sativa, Transplanted (Oryza sativa; 10 g/ha) [%] | Phytotoxicity, Oryza sativa, Seed (Oryza sativa; 20 g/ha) [%] | Phytotoxicity, Oryza sativa, Transplanted (Oryza sativa; 20 g/ha) [%] | Phytotoxicity, Oryza sativa, Seed (Oryza sativa; 40 g/ha) [%] | Phytotoxicity, Oryza sativa, Transplanted (Oryza sativa; 40 g/ha) [%] | Phytotoxicity, Oryza sativa, Seed (Oryza sativa; [1]) [%] | Phytotoxicity, Oryza sativa, Transplanted (Oryza sativa; 80 g/ha) [%] | pest or weed control at 5 g/ha (Echinochloa crus-galli; [2]) [%] | pest or weed control at 5 g/ha (Echinochloa crus-galli; [3]) [%] | pest or weed control at 10 g/ha (Echinochloa crus-galli; [2]) [%] | pest or weed control at 10 g/ha (Echinochloa crus-galli; [3]) [%] | pest or weed control at 20 g/ha (Echinochloa crus-galli; [4]) [%] | pest or weed control at 20 g/ha (Echinochloa crus-galli; [5]) [%] | pest or weed control at 30 g/ha (Echinochloa crus-galli; [2]) [%] | pest or weed control at 30 g/ha (Echinochloa crus-galli; [6]) [%] | herbicidal activity to barnyardgrass (Echinochloa crus-galli; 20 g/ha, pre- or post-emergence treatments) [%]
1 | COc1cc(OC)nc(NC(=O)NS(=O)(=O)c2cccnc2[C@@H](OC(C)=O)[C@H](C)F)n1 [Standard Compound D, reference compound] | 10 | 0 | 20 | 10 | 30 | 20 | 60 | 50 | 50 | 30 | 90 | 100 | 100 | 100 | 100 | 100 | 
2 | CCOC(=O)c1cnn(C)c1S(=O)(=O)NC(=O)Nc1nc(OC)cc(OC)n1 [Standard Compound E, Pyrazosulfuron-ethyl, reference compound] | 0 | 0 | 10 | 0 | 20 | 0 | 30 | 10 | 0 | 0 | 0 | 10 | 0 | 20 | 20 | 30 | 10
